Test results as given in patent publication US20040009195A1, “Modified sialic acid vaccines” (priority 2003, published 2004).

System: SK-Mel-28 human melanoma cells
Assay: Expression of modified GD3 after incubation with modified precursors (flow cytometry, CE-MS)
Format: cell-based
Settings: 1 mg/ml precursor concentration; in agreement with flow cytometry
Method: SK-Mel-28 human melanoma cells normally expressing GD3 were incubated with modified sialic acid precursors. The modified sialic acid precursors used were N-acylated Mannosamines(“ManNAc”), including: N-propionyl mannosamine (“ManNPr”), N-butyril mannosamine (“ManNBu”), and N-benzoyl mannosamine (“ManNBz”).
The incorporation and metabolism of the surface GD3 antigen were also investigated. […] Modified GD3 on SK-Mel-28 cells in vitro was still found 10 days after removal of precursors from the growth medium, when two populations of antigens, unmodified and modified GD3 were detected by mAb R24 and respective antiserum.
The relative quantity of modified and unmodified GD3 expressed on the SK-Mel-28 was analysed by capillary electrophoresis-mass spectroscopy (“CE-MS”). The glycolipids extracted from cells grown in various concentrations of ManNBu were separated by capillary electrophoresis and negative charged glycolipids were detected. GD3 was the dominant ganglioside found in SK-Mel-28 cells. When ManNBu was added to the medium, the modified GD3 was biosynthesized and expressed.

SMILES: CCCC(=O)N[C@@H]1C(O)O[C@H](CO)[C@@H](O)[C@@H]1O (stereo partly shown) [ManNBu, N-butyril mannosamine]
- Relative expression of modified GD3 by CE-MS: well expressed
